Test results as given in BindingDB's records for doi:10.7270/Q2ZC8184 (Nmmlsc, 2010).

Target: Glutathione S-transferase class-mu 26 kDa isozyme (Schistosoma japonicum, UniProt P08515)
Assay: GST–glutathione bead interaction interference profiling – biochemical, multiplex beads, flow cytometry, profiling panel (AID 1769)

Chain of Glutathione S-transferase class-mu 26 kDa isozyme (P08515 2-218 limits assumed): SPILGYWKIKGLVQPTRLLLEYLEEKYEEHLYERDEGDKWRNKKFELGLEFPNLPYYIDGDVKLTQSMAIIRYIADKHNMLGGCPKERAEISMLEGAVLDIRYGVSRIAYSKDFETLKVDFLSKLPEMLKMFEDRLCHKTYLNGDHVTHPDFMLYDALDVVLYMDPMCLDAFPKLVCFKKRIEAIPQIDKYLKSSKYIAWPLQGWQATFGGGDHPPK

## CCOC1=CC(=Cc2sc(=O)[nH]c2N)C=CC1=O
  EC50: 2.47 µM

## CCn1cc(C(=O)O)c(=O)c2cc(F)c(N=NCc3ccccc3)cc21 [1-Ethyl-6-fluoro-4-oxo-7-{N'-[1-phenyl-meth-(E)-ylidene]-hydrazino}-1,4-dihydro-quinoline-3-carboxylic acid]
  EC50: 3.88 µM

## CCn1cc(C(=O)O)c(=O)c2cc(F)c(N=NCc3ccccc3[N+](=O)[O-])cc21 [SMR000171611]
  EC50: 2.67 µM

## CC(N=Nc1ccc(S(N)(=O)=O)cc1[N+](=O)[O-])c1ccc2c(c1)OCO2 (stereo not drawn)
  EC50: 1.4 µM

## COc1cc(CN=Nc2nc(C)nc3c2cnn3-c2ccccc2)ccc1O [(4E)-2-methoxy-4-[[(6-methyl-1-phenyl-4-pyrazolo[3,4-d]pyrimidinyl)hydrazo]methylidene]-1-cyclohexa-2,5-dienone]
  EC50: 0.638 µM

## Cc1ccc(O)c(/N=C/C2=CC(Cc3ccccc3)C=C([N+](=O)[O-])C2=O)c1 (stereo not drawn) [(6E)-6-[[(5-methyl-2-oxidanyl-phenyl)amino]methylidene]-2-nitro-4-(phenylmethyl)cyclohexa-2,4-dien-1-one]
  EC50: 8.29 µM

## COc1cc(CN=Nc2ncnc3sc4c(c23)CCC4)ccc1O [SMR000242188]
  EC50: 14.5 µM

## Cc1cc(N=NCc2ccc(O)cc2O)nc(-n2nc(C)cc2C)n1 [(4E)-4-[[2-[2-(3,5-dimethylpyrazol-1-yl)-6-methyl-pyrimidin-4-yl]hydrazinyl]methylidene]-3-oxidanyl-cyclohexa-2,5-dien-1-one]
  EC50: 0.831 µM

## Cc1nc(N=NCc2ccc(O)cc2)c2cnn(-c3ccccc3)c2n1 [4-[[(6-methyl-1-phenyl-4-pyrazolo[3,4-d]pyrimidinyl)hydrazo]methylidene]-1-cyclohexa-2,5-dienone]
  EC50: 3.58 µM

## COc1ccc(-c2csc(-c3c(O)cn(C(C)C)c3N)n2)cc1OC [5-amino-4-[4-(3,4-dimethoxyphenyl)-1,3-thiazol-2-yl]-1-propan-2-yl-2H-pyrrol-3-one]
  EC50: 87.3 µM

## Oc1ccc2ccccc2c1CN=Nc1nnc(-c2ncc[nH]2)c2ccccc12 [SMR000151639]
  EC50: 1.95 µM

## COc1ccc(N=CCc2nc(SC)nnc2C)cc1 [(4-methoxyphenyl)-[(E)-2-[6-methyl-3-(methylthio)-1,2,4-triazin-5-yl]vinyl]amine]
  EC50: 2.76 µM

## CN1C(=O)/C(=C2/C(=O)Nc3ccccc32)NC1=S [SMR000198608]
  EC50: 13.4 µM

## NC(=S)NNC1=c2cc(F)c(F)cc2=NC1=O [MLS000589334]
  EC50: 15.6 µM

## COC(=O)c1cc(NC(=O)c2cccc(Cl)c2)c(=O)oc1CC=Nc1cc(C)cc(C)c1 [5-[(3-chlorobenzoyl)amino]-2-[(E)-2-(3,5-dimethylanilino)vinyl]-6-keto-pyran-3-carboxylic acid methyl ester]
  EC50: 0.567 µM

## CCOc1ccc2c(c1)C(=NN=C(N)N)C(=O)N2C [SMR000207554]
  EC50: 25.6 µM

## CCN(c1ccc(NC=C2C(=O)N(Cc3ccc(OC)cc3)C(=O)c3ccccc32)cc1)C(C)C [(4E)-4-[[[4-[ethyl(propan-2-yl)amino]phenyl]amino]methylidene]-2-[(4-methoxyphenyl)methyl]isoquinoline-1,3-dione]
  EC50: 0.249 µM

## O=C(Cc1ccccc1)NCC(=O)N/N=C1\C(=O)N(Cc2ccc3c(c2)OCO3)c2ccccc21 [MLS000587449]
  EC50: 12 µM

## O=c1[nH]c(=O)c2nnc(N=NCc3ccc(O)cc3)nc2[nH]1 [3-[2-[(4-oxidanylidenecyclohexa-2,5-dien-1-ylidene)methyl]hydrazinyl]-5H-pyrimido[4,5-e][1,2,4]triazine-6,8-dione]
  EC50: 3.79 µM

## NC(=S)NNC1=c2cc(Br)cc(Br)c2=NC1=O [1-[[5,7-bis(bromanyl)-2-oxidanylidene-indol-3-yl]amino]thiourea]
  EC50: 69.1 µM

## CCNC(=S)NN=C1C(=O)Nc2ccc([N+](=O)[O-])cc21 [MLS000773526]
  EC50: 1.93 µM

## O=c1[nH]c(N=NCc2ccc(O)cc2)nc2ccccc12 [MLS000571412]
  EC50: 7.68 µM

## CC(C)NC(=S)NN=C1C(=O)Nc2ccc([N+](=O)[O-])cc21 [1-[(5-nitro-2-oxidanylidene-indol-3-yl)amino]-3-propan-2-yl-thiourea]
  EC50: 1.43 µM
